Test results from patent US11230538B2, “Herbicides” (SYNGENTA PARTICIPATIONS AG, priority 2016, dated 2022).

Tests used:
Type in all cases: in vivo
Lolium perenne (LOLPE) [1] = assay: B1 Pre-emergence herbicidal activity; parameters: key to Pre-emergence herbicidal activity, LOLPE (damage score 0-5): 5=total damage to plant; 0=no damage to plant; conditions: pre-emergence application, rate 1000 g/ha, evaluated after 13 days
Method in brief: (§1)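 Test species received a pre-emergence application one day post-sowing in an acetone/water solution with 0.5% Tween 20. Phytotoxicity was assessed 13 days later on a scale where 0 means no damage and 5 total plant death.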

[2] = test system: Echinochloa crus-galli (ECHCG); assay: B1 Pre-emergence herbicidal activity; conditions: pre-emergence application, rate 1000 g/ha, evaluated after 13 days
Method in brief: as §1

[3] = test system: Echinochloa crus-galli (ECHCG); assay: B2 Post-emergence herbicidal activity; parameters: key to Post-emergence herbicidal activity, ECHCG (damage score 0-5): 5=total damage to plant; 0=no damage to plant; conditions: post-emergence application, rate 1000 g/ha, evaluated after 13 days
Method in brief: (§2)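 Scores run from 0 for undamaged to 5 for fully killed plants, assessed 13 days post-spray. Application was post-emergence at 8 days of growth, using an acetone/water (50:50), 0.5% Tween 20 spray solution; growth at 24 °C day, 16 °C night, 65% humidity.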

[4] = test system: Alopecurus myosuroides (ALOMY); assay: B2 Post-emergence herbicidal activity; parameters: key: 5=total damage to plant; 0=no damage to plant; conditions: post-emergence application, rate 1000 g/ha, evaluated after 13 days
Method in brief: as §2

[5] = test system: Triticum aestivium (TRZAW); assay: B2 Post-emergence herbicidal activity; parameters: key: 5=total damage to plant; 0=no damage to plant; conditions: post-emergence application, rate 1000 g/ha, evaluated after 13 days
Method in brief: as §2

Setaria fabenri (SETFA) = assay: B2 Post-emergence herbicidal activity; parameters: key: 5=total damage to plant; 0=no damage to plant; conditions: post-emergence application, rate 1000 g/ha, evaluated after 13 days
Method in brief: as §2

Avena fatua (AVEFA) [6] = assay: B2 Post-emergence herbicidal activity; conditions: post-emergence application, rate 1000 g/ha, evaluated after 13 days
Method in brief: as §2

[7] = test system: Alopecurus myosuroides (ALOMY); assay: B1 Pre-emergence herbicidal activity; parameters: key: 5=total damage to plant; 0=no damage to plant; conditions: pre-emergence application, rate 1000 g/ha, evaluated after 13 days
Method in brief: as §1

[8] = test system: Triticum aestivium (TRZAW); assay: B1 Pre-emergence herbicidal activity; parameters: key: 5=total damage to plant; 0=no damage to plant; conditions: pre-emergence application, rate 1000 g/ha, evaluated after 13 days
Method in brief: as §1

Avena fatua (AVEFA) [9] = assay: B1 Pre-emergence herbicidal activity; parameters: key: 5=total damage to plant; 0=no damage to plant; conditions: pre-emergence application, rate 1000 g/ha, evaluated after 13 days
Method in brief: as §1

Lolium perenne (LOLPE) [10] = assay: B2 Post-emergence herbicidal activity; conditions: post-emergence application, rate 1000 g/ha, evaluated after 13 days
Method in brief: as §2

Setaria fabenr (SETFA) = assay: B1 Pre-emergence herbicidal activity; parameters: key to Pre-emergence herbicidal activity, SETFA (damage score 0-5): 5=total damage to plant; 0=no damage to plant; conditions: pre-emergence application, rate 1000 g/ha, evaluated after 13 days
Method in brief: as §1

Compound	Pre-emergence herbicidal activity, LOLPE (damage score 0-5) (Lolium perenne (LOLPE) [1])	Pre-emergence herbicidal activity, ECHCG (damage score 0-5) [2]	Post-emergence herbicidal activity, ECHCG (damage score 0-5) [3]	Post-emergence herbicidal activity, ALOMY (damage score 0-5) [4]	Post-emergence herbicidal activity, TRAZW (damage score 0-5) [5]	Post-emergence herbicidal activity, SETFA (damage score 0-5) (Setaria fabenri (SETFA))	Post-emergence herbicidal activity, AVEFA (damage score 0-5) (Avena fatua (AVEFA) [6])	Pre-emergence herbicidal activity, ALOMY (damage score 0-5) [7]	Pre-emergence herbicidal activity, TRAZW (damage score 0-5) [8]	Pre-emergence herbicidal activity, AVEFA (damage score 0-5) (Avena fatua (AVEFA) [9])	Post-emergence herbicidal activity, LOLPE (damage score 0-5) (Lolium perenne (LOLPE) [10])	Pre-emergence herbicidal activity, SETFA (damage score 0-5) (Setaria fabenr (SETFA))
O=C(Nc1ccc(-c2cncc(F)c2)nc1C(F)(F)F)C1CC1 [Compound C59]	1	4	5	1	0	4	3	0	0	3	3	5
O=C(Nc1ccc(-c2cncnc2)nc1C(F)(F)F)C(Cl)(Cl)Cl [Compound C60]	0	3	4	0	0	4	3	0	0	2	3	5
C#CCN(C(=O)C(C)C)c1ccc(-c2cncc(F)c2)nc1C(F)(F)F [Compound C61]	0	3	4	1	0	4	2	0	0	1	2	5
CCC(=O)N(CCC(F)F)c1ccc(-c2cncc(F)c2)nc1C(F)(F)F [Compound C62]	1	3	5	1	1	5	4	0	0	2	2	4
C=CCN(C(=O)COC)c1ccc(-c2cncc(F)c2)nc1C(F)(F)F [Compound C63]	1	2	4	1	0	4	2	0	0	0	2	4
O=C(Nc1ccc(-c2cncnc2)nc1C(F)(F)F)C(Cl)Cl [Compound C65]	2	4	5	0	0	5	4	0	0	3	3	3
O=C1CCC(=O)N1c1ccc(-c2cncc(F)c2)nc1C(F)(F)F [Compound C67, 1-[6-(5-fluoro-3-pyridyl)-2-(trifluoromethyl)-3-pyridyl]pyrrolidine-2,5-dione]	0	1	4	0	0	4	2	0	0	0	2	2
CCC(=O)N(Cc1ccncc1)c1ccc(-c2cncc(F)c2)nc1C(F)(F)F [Compound C70]	1	2	2	0	0	3	2	0	0	1	1	2
COCC(=O)N(CC1CC1)c1ccc(-c2cncc(F)c2)nc1C(F)(F)F [Compound C80]	0	2	3	1	1	5	2	0	0	1	1	3
COCCN(C(=O)C(C)C)c1ccc(-c2cncc(F)c2)nc1C(F)(F)F [Compound C85]	0	2	4	0	1	4	2	0	0	0	1	2
